Test results taken from ChEMBL document CHEMBL5233271, “Discovering the Mechanisms of Wikstroelide E as a Potential HIV-Latency-Reversing Agent by Transcriptome Profiling” (J Nat Prod, 2021).
The source made the active and inactive calls. No cut-off for these calls is given here.

Assays:
[1] = system: Human immunodeficiency virus; test: Reactivation of latent HIV in human NH1 cells at 5 uM measured after 24 hrs by luciferase based analysis; format: functional, organism-based
[2] = system: Human immunodeficiency virus; test: Reactivation of latent HIV in human NH2 cells at 5 uM measured after 24 hrs by luciferase based analysis; format: functional, organism-based

CC(=O)O[C@@]12C[C@@H](C)[C@@]3(O)[C@@H](C=C(CO)C[C@]4(O)C(=O)C(C)=C[C@@H]34)[C@@H]1C2(C)C
Activity [1]: Active
Activity [2]: Active
